In paper PMC12700101 (2025):

Assays:
[1] = test system: Dopamine MAB BHQ-1–FAM (DNA, aptamer) ACGCCAGTTTGAAGGTTCGTTCGCAGGTGTGGAGTGACGT; test: fluorescence quenching titration (molecular aptamer beacon); details: 1x PBS, 2 mM MgCl2; apparent; pH 8.0, 25 °C
[2] = test system: Dopamine DBS Cy3(+T)–BHQ-1 Terminal (DNA, aptamer) AAATACAACAAGAAAAAACTCTCGGGACGACGTACCAGTTTGAAGGTTCGTTCGCAGGTGTGGAGTGACGTCGTCCC; test: fluorescence strand-displacement titration; details: 1x PBS, 2 mM MgCl2; apparent; pH 8.0, 25 °C; displaced 43-nt strand, 5'-BHQ-1 plus T, 4 eq
[3] = test system: Dopamine DBS BHQ-1–Cy3 (DNA, aptamer) AAATACAACAAGAAAAAACTCTCGGGACGACGACCAGTTTGAAGGTTCGTTCGCAGGTGTGGAGTGACGTCGTCCC; test: fluorescence strand-displacement titration; details: 1x PBS, 2 mM MgCl2; apparent; pH 8.0, 25 °C; displaced 42-nt 5'-Cy3 strand, 1 eq
[4] = test system: Dopamine DBS Cy3–BHQ-1 (Position 1/Adjacent) (DNA, aptamer) AAATACAACAAGAAAAAACTCTCGGGACGACGACCAGTTTGAAGGTTCGTTCGCAGGTGTGGAGTGACGTCGTCCC; test: fluorescence melting; details: 1x PBS, 2 mM MgCl2; derived from two Tm (51.7 ± 0.1, 50.9 ± 0.1) of aptamer–displacement duplex; 50 µM dopamine, pH 8.0
[5] = test system: Dopamine DBS BHQ-1/Cy3 (1:1) (DNA, aptamer) AAATACAACAAGAAAAAACTCTCGGGACGACGCCAGTTTGAAGGTTCGTTCGCAGGTGTGGAGTGACGTCGTCCC; test: fluorescence melting; details: 1x PBS, 2 mM MgCl2; pH 8.0; 50 µM dopamine; derived from two Tm (51.0, 50.6); displacement strand 1:1
[6] = test system: Dopamine DBS Cy3/BHQ-1 (P3) (DNA, aptamer) AAATACAACAAGAAAAAACTCTCGGGACGACGCCAGTTTGAAGGTTCGTTCGCAGGTGTGGAGTGACGTCGTCCC; test: fluorescence melting; details: 1x PBS, 2 mM MgCl2; pH 8.0; 50 µM dopamine; derived from two Tm (50.3, 50.1); displacement strand 1:4
[7] = test system: Dopamine DBS Cy3(+T)–BHQ-1 Internal (DNA, aptamer) AAATACAACAAGAAAAAACTCTCGGGACGACGTACCAGTTTGAAGGTTCGTTCGCAGGTGTGGAGTGACGTCGTCCC; test: fluorescence strand-displacement titration; details: 1x PBS, 2 mM MgCl2; apparent; pH 8.0, 25 °C; displaced 42-nt strand, internal BHQ-1, 4 eq
[8] = test system: Dopamine MAB FAM–BHQ-1 (DNA, aptamer) ACGCCAGTTTGAAGGTTCGTTCGCAGGTGTGGAGTGACGT; test: fluorescence melting; details: 1x PBS, 2 mM MgCl2; derived from two Tm (44.8 ± 0, 37.7 ± 0.1); 50 µM dopamine, pH 8.0
[9] = test system: Dopamine MAB Cy3–BHQ-1 (DNA, aptamer) ACGCCAGTTTGAAGGTTCGTTCGCAGGTGTGGAGTGACGT; test: fluorescence melting; details: 1x PBS, 2 mM MgCl2; derived from two Tm (49.5 ± 0.3, 52.7 ± 0.8); 50 µM dopamine, pH 8.0
[10] = test system: Dopamine DBS Cy3(+T)–BHQ-1 (DNA, aptamer) AAATACAACAAGAAAAAACTCTCGGGACGACGTACCAGTTTGAAGGTTCGTTCGCAGGTGTGGAGTGACGTCGTCCC; test: fluorescence strand-displacement titration; details: 1x PBS, 2 mM MgCl2; apparent; pH 8.0, 25 °C; displaced 42-nt 5'-BHQ-1 strand, 4 eq
[11] = test system: Dopamine DBS FAM(+T)/BHQ-1 (DNA, aptamer, 6-FAM-modified dT (click, i6-FAMK) at 33) AAATACAACAAGAAAAAACTCTCGGGACGACGTCCAGTTTGAAGGTTCGTTCGCAGGTGTGGAGTGACGTCGTCCC …; test: fluorescence melting; details: 1x PBS, 2 mM MgCl2; pH 8.0; 50 µM dopamine; derived from two Tm (49.1, 48.9); displacement strand 1:4
[12] = test system: Dopamine DBS Cy3(+T)/BHQ-1 (DNA, aptamer) AAATACAACAAGAAAAAACTCTCGGGACGACGTCCAGTTTGAAGGTTCGTTCGCAGGTGTGGAGTGACGTCGTCCC; test: fluorescence melting; details: 1x PBS, 2 mM MgCl2; pH 8.0; 50 µM dopamine; derived from two Tm (51.6, 50.9); displacement strand 1:4
[13] = test system: Dopamine DBS Cy3(+T)/BHQ-1 (term.) (DNA, aptamer) AAATACAACAAGAAAAAACTCTCGGGACGACGTCCAGTTTGAAGGTTCGTTCGCAGGTGTGGAGTGACGTCGTCCC; test: fluorescence melting; details: 1x PBS, 2 mM MgCl2; pH 8.0; 50 µM dopamine; derived from two Tm (50.8, 50.0); displacement strand 1:4
[14] = test system: Dopamine DBS FAM(+T)–BHQ-1 Internal (DNA, aptamer, 6-FAM-dT (azide click) at 33) AAATACAACAAGAAAAAACTCTCGGGACGACGTACCAGTTTGAAGGTTCGTTCGCAGGTGTGGAGTGACGTCGTCCC; test: fluorescence strand-displacement titration; details: 1x PBS, 2 mM MgCl2; apparent; pH 8.0, 25 °C; displaced 42-nt strand, internal BHQ-1, 4 eq
[15] = test system: Dopamine DBS Cy3–BHQ-1 (Int.) (DNA, aptamer) AAATACAACAAGAAAAAACTCTCGGGACGACGACCAGTTTGAAGGTTCGTTCGCAGGTGTGGAGTGACGTCGTCCC; test: fluorescence strand-displacement titration; details: 1x PBS, 2 mM MgCl2; apparent; pH 8.0, 25 °C; displaced 42-nt strand, internal BHQ-1, 4 eq

SMILES: NCCc1ccc(O)c(O)c1
- Kd [1]: 5.3 ± 0.8 µM
- Kd [2]: 40.1 ± 5.0 µM
- Kd [3]: 95.6 ± 6.7 µM
- Tm [4]: -0.8 °C
- Tm [5]: -0.4 °C
- Tm [6]: -0.2 °C
- Kd [7]: 17.3 ± 1.3 µM
- Tm [8]: -7.1 °C
- Tm [9]: 3.2 °C
- Kd [10]: 76.7 ± 5.5 µM
- Tm [11]: -0.2 °C
- Tm [12]: -0.7 °C
- Tm [13]: -0.8 °C
- Kd [14]: 7.5 ± 0.9 µM
- Kd [15]: 34.0 ± 3.3 µM
